Broadly, the IC50 is the concentration needed to halve the response being measured.

This is an account of results in BindingDB's records for doi:10.1016/j.bmcl.2011.12.117 (Astrazeneca, 2012).

The nature of the assay: Antagonist activity at CCR5 in allo T cells assessed as inhibition of MIP-1beta-induced chemotaxis.

With `CCN(C(=O)Cc1ccc(S(C)(=O)=O)cc1)C1CCN(CC[C@@H](c2cc(F)cc(F)c2)C2CCN(S(C)(=O)=O)CC2)CC1`, the concentration for half-maximal inhibition (IC50) came out at 0.69 nM.
